Assay results published in ChEMBL document CHEMBL5247656, “Discovery of a Potent, Cooperative, and Selective SOS1 PROTAC ZZ151 with In Vivo Antitumor Efficacy in KRAS-Mutant Cancers” (J Med Chem, 2023).
The source made the active and inactive calls. The calls are words filed in the database; no cut-off is given here.

Tests used:
[1] = molecular target: T1, von Hippel-Lindau disease tumor suppressor/Son of sevenless homolog 1 (Homo sapiens) (UniProt Q07889+P40337); test: PROTAC activity at VHL/SOS1 in human NCI-H358 cells assessed as induction of SOS1 protein degradation by measuring maximal efficacy at 2 to 2000 nM incubated for 24 hrs by Immunoblot analysis relative to control; assay type: cell-based; conditions: dose 2-2000 nM
ASPC1 [2] = test: Downregulation of ALKBH4 in human ASPC1 cells at 1 uM incubated for 6 hrs by quantitative proteomics analysis; assay type: functional, cell-based
[3] = molecular target: T1, von Hippel-Lindau disease tumor suppressor/Son of sevenless homolog 1 (Homo sapiens); test: PROTAC activity at VHL/SOS1 in human NCI-H358 cells assessed as induction of SOS1 protein degradation at 0.1 uM incubated for 24 hrs by Immunoblot analysis relative to control; assay type: cell-based
[4] = molecular target: T1, von Hippel-Lindau disease tumor suppressor/Son of sevenless homolog 1 (Homo sapiens); test: PROTAC activity at VHL/SOS1 in human NCI-H358 cells harboring KRAS G12C mutant assessed as induction of SOS1 degradation at 1 uM incubated for 2 to 4 hrs by Immunoblot analysis; assay type: cell-based; conditions: time 2-4 hrs
[5] = molecular target: T1, von Hippel-Lindau disease tumor suppressor/Son of sevenless homolog 1 (Homo sapiens); test: In vivo PROTAC activity at VHL/SOS1 in human SW620 cells harboring KRAS G12V mutant xenografted BALB/c nude mouse assessed as decrease in phosphorylated ERK expression at 10 to 20 mg/kg, ip administered once daily for 2 weeks by Immunoblot analysis; assay type: functional, organism-based; conditions: SW-620, dose 10-20 mg/kg
[6] = molecular target: T1, von Hippel-Lindau disease tumor suppressor/Son of sevenless homolog 1 (Homo sapiens); test: In vivo PROTAC activity at VHL/SOS1 in human SW620 cells harboring KRAS G12V mutant xenografted BALB/c nude mouse assessed as induction of SOS1 degradation in tumor at 10 to 20 mg/kg, ip administered once daily for 2 weeks by immunohistochemistry analysis; assay type: functional, organism-based; conditions: SW-620, dose 10-20 mg/kg
[7] = AUC in BALB/c mouse at 10 mg/kg, ip measured upto 24 hrs by LC-MS/MS analysis; assay type: ADME, organism-based; parameters: time < 24 hrs, dose 10 mg/kg, route ip; conditions: in vivo
NCI-H358 = test: Antiproliferative activity against human NCI-H358 cells harboring KRAS G12C mutant assessed as inhibition of cell proliferation incubated for 7 days by CellTiterGlo-3D proliferation assay; assay type: functional, cell-based; conditions: NCI-H358, 168 h
[8] = molecular target: T1, von Hippel-Lindau disease tumor suppressor/Son of sevenless homolog 1 (Homo sapiens); test: PROTAC activity at VHL/SOS1 in human NCI-H441 cells harboring KRAS G12V mutant assessed as induction of SOS1 degradation by measuring maximal efficacy at 1 to 2000 nM incubated for 24 hrs by Immunoblot analysis relative to control; assay type: cell-based; conditions: dose 1-2000 nM
ASPC1 [9] = test: Antitumor activity against human ASPC1 cells harboring KRAS G12D mutant xenografted in BALB/c nude mouse assessed as tumor growth inhibition at 20 mg/kg, ip administered once daily for 3 weeks relative to control; assay type: functional; conditions: ASPC1, 504 h, read-out: TGI
[10] = molecular target: T1, von Hippel-Lindau disease tumor suppressor/Son of sevenless homolog 1 (Homo sapiens); test: (§1) PROTAC activity at VHL/SOS1 in human NCI-H358 cells harboring KRAS G12C mutant assessed as induction of SOS1 degradation at 1 uM preincubated with VHL ligand for 4 hrs followed by compound treatment and measured after 24 hrs by Immunoblot analysis; assay type: cell-based
[11] = molecular target: T1, von Hippel-Lindau disease tumor suppressor/Son of sevenless homolog 1 (Homo sapiens); test: PROTAC activity at VHL/SOS1 in human SNU1 cells harboring KRAS G12D mutant assessed as induction of SOS1 degradation by measuring maximal efficacy at 1 to 2000 nM incubated for 24 hrs by Immunoblot analysis relative to control; assay type: cell-based; conditions: dose 1-2000 nM
SW-620 = test: Antiproliferative activity against human SW620 cells harboring KRAS G12V mutant assessed as inhibition of cell proliferation incubated for 7 days by CellTiterGlo-3D proliferation assay; assay type: functional, cell-based; conditions: SW-620, 168 h
[12] = molecular target: T1, von Hippel-Lindau disease tumor suppressor/Son of sevenless homolog 1 (Homo sapiens); test: PROTAC activity at VHL/SOS1 in human ASPC1 cells harboring KRAS G12D mutant assessed as induction of SOS1 degradation at 1 uM preincubated with VHL ligand for 4 hrs followed by compound treatment and measured after 24 hrs by immunoblot analysis; assay type: cell-based
[13] = molecular target: T1, von Hippel-Lindau disease tumor suppressor/Son of sevenless homolog 1 (Homo sapiens); test: PROTAC activity at VHL/SOS1 in human SW620 cells harboring KRAS G12V mutant assessed as induction of SOS1 degradation at 1 uM incubated for 8 hrs by Immunoblot analysis; assay type: cell-based
NCI-H460 = test: Antiproliferative activity against human NCI-H460 cells harboring KRAS […] mutant assessed as inhibition of cell proliferation incubated for 7 days by CellTiterGlo-3D proliferation assay; assay type: functional, cell-based; conditions: time 7.0 day
[14] = molecular target: von Hippel-Lindau disease tumor suppressor/Son of sevenless homolog 1/Elongin-B/Elongin-C (Homo sapiens) (UniProt Q07889+P40337+Q15370+Q15369); test: Binding affinity to GST tagged human SOS1(564 to 1049 residues)-6his tagged human VHL (54 to 213 residues)-human ElonginC (17 to 112 residues)-human ElonginB (1 to 104 residues) expressed in Escherichia coli BL21 (DE3) cells assessed as ternary complex formation by measuring maximal HTRF signals incubated for 15 mins by HTRF analysis
[15] = molecular target: T1, von Hippel-Lindau disease tumor suppressor/Son of sevenless homolog 1 (Homo sapiens); test: PROTAC activity at VHL/SOS1 in human HPAF-II cells harboring KRAS G12D mutant assessed as induction of SOS1 degradation by measuring maximal efficacy at 1 to 2000 nM incubated for 24 hrs by Immunoblot analysis relative to control; assay type: cell-based; conditions: dose 1-2000 nM
[16] = molecular target: T1, von Hippel-Lindau disease tumor suppressor/Son of sevenless homolog 1 (Homo sapiens); test: as §1, with “(R)-1-(4-(4-((1-(3-amino-5-(trifluoromethyl)phenyl)ethyl)amino)-7-methoxy-2-methylquinazolin-6-yl)piperidin-1-yl)ethanone” for “VHL ligand”; assay type: cell-based
[17] = molecular target: T1, von Hippel-Lindau disease tumor suppressor/Son of sevenless homolog 1 (Homo sapiens); test: PROTAC activity at VHL/SOS1 in human ASPC1 cells harboring KRAS G12D mutant assessed as induction of SOS1 degradation at 1 uM preincubated with MG132 for 4 hrs followed by compound treatment and measured after 24 hrs by immunoblot analysis; assay type: cell-based
[18] = molecular target: T1, von Hippel-Lindau disease tumor suppressor/Son of sevenless homolog 1 (Homo sapiens); test: PROTAC activity at VHL/SOS1 in human ASPC1 cells harboring KRAS G12D mutant assessed as induction of SOS1 degradation at 1 uM incubated for 2 to 4 hrs by Immunoblot analysis; assay type: cell-based; conditions: time 2-4 hrs
PANC-1 = test: Antiproliferative activity against human PANC-1 cells harboring KRAS G12D mutant assessed as inhibition of cell proliferation incubated for 7 days by CellTiterGlo-3D proliferation assay; assay type: functional, cell-based; conditions: PANC-1, 168 h
[19] = molecular target: T1, von Hippel-Lindau disease tumor suppressor/Son of sevenless homolog 1 (Homo sapiens); test: In vivo PROTAC activity at VHL/SOS1 in human ASPC1 cells harboring KRAS G12D mutant xenografted BALB/c nude mouse assessed as induction of SOS1 degradation administered intraperitoneally once daily for 3 weeks by immunohistochemistry analysis; assay type: functional; conditions: dose 10-20 mg/kg, route ip
[20] = molecular target: T1, von Hippel-Lindau disease tumor suppressor/Son of sevenless homolog 1 (Homo sapiens); test: PROTAC activity at VHL/SOS1 in human Calu-1 cells harboring KRAS G12C mutant assessed as induction of SOS1 degradation by measuring maximal efficacy at 1 to 2000 nM incubated for 24 hrs by Immunoblot analysis relative to control; assay type: cell-based; conditions: dose 1-2000 nM
LoVo = test: Antiproliferative activity against human LoVo cells harboring KRAS G13D mutant assessed as inhibition of cell proliferation incubated for 7 days by CellTiterGlo-3D proliferation assay; assay type: functional, cell-based; conditions: 168 h
[21] = molecular target: T1, von Hippel-Lindau disease tumor suppressor/Son of sevenless homolog 1 (Homo sapiens); test: PROTAC activity at VHL/SOS1 in human NCI-H358 cells harboring KRAS G12C mutant assessed as induction of SOS1 degradation at 1 uM preincubated with MG132 for 4 hrs followed by compound treatment and measured after 24 hrs by Immunoblot analysis; assay type: cell-based

Which Emax [1] does the source give for `COc1cc2nc(C)nc(N[C@H](C)c3cc(N)cc(C(F)(F)F)c3)c2cc1C1CCN(C(=O)CCCCCC(=O)N[C@H](C(=O)N2C[C@H](O)C[C@H]2C(=O)N[C@@H](C)c2ccc(-c3scnc3C)cc2)C(C)(C)C)CC1` here?
The Emax was 100%.

What about the Activity (ASPC1 [2]) of the same molecule?
Its Activity is “Active”.

What about the Activity [3] of the same molecule?
The Activity was 83.9%.

And the Activity [4]?
Its Activity is “Active”.

What about the Activity [5] of the same molecule?
Its Activity is “Active”.

What about the Activity [6] of the same molecule?
The Activity was “Active”.

And the AUC at 24 h [7]?
The AUC at 24 h was 14100 ng·h/mL.

And the IC50 (NCI-H358)?
Its IC50 is 12.9 nM.

And the Emax [8]?
The Emax was greater than 95%.

And the inhibition in vivo at 20 mg/kg (ASPC1 [9])?
Its inhibition in vivo at 20 mg/kg is 70.2%.

And the Activity [10]?
Its Activity is “inactive”.

And the Emax [11]?
Its Emax is greater than 95%.

What about the IC50 (SW-620) of the same molecule?
The IC50 was 18.5 nM.

And the Activity [12]?
The Activity was “inactive”.

And the Activity [13]?
The Activity was “Active”.

And the inhibition (NCI-H460)?
The inhibition was “inactive”.

What about the Activity [14] of the same molecule?
Its Activity is “Active”.

And the Emax [15]?
The Emax was greater than 95%.

And the Activity [16]?
Its Activity is “inactive”.

And the Activity [17]?
Its Activity is “inactive”.

What about the Activity [18] of the same molecule?
Its Activity is “Active”.

What about the IC50 (PANC-1) of the same molecule?
The IC50 was 13.8 nM.

What about the Activity [19] of the same molecule?
Its Activity is “Dose-Dependent Effect”.

What about the Emax [20] of the same molecule?
The Emax was greater than 95%.

And the IC50 (LoVo)?
Its IC50 is 44.5 nM.

And the Activity [21]?
The Activity was “inactive”.
